“And” between values parts separate entries of the source, which are not always exact repeats. Identical values can stand only once. ± gives the expanded uncertainty stated by the source.
Experiment: molar heat capacity at constant pressure
Settings: 101.33 kPa, Crystal, Small (less than 1 g) adiabatic calorimetry

O.O.O.O.O.O=S(=O)([O-])[O-].[Cu+2] [copper(II) sulfate pentahydrate]
Settings | molar heat capacity at constant pressure
233.45 K | 239.84 ± 0.9 J/K/mol
234.05 K | 245.57 ± 1.2 J/K/mol
234.17 K | 240.04 ± 0.9 J/K/mol
234.4 K | 246.29 ± 1.2 J/K/mol
234.6 K | 245.97 ± 1.2 J/K/mol
234.74 K | 245.84 ± 1.2 J/K/mol
235.43 K | 246.76 ± 1.2 J/K/mol
235.54 K | 247.78 ± 1.2 J/K/mol
235.9 K | 247.43 ± 1.2 J/K/mol
236.03 K | 249.81 ± 1.2 J/K/mol
236.12 K | 248.09 ± 1.2 J/K/mol
236.33 K | 241.79 ± 0.9 J/K/mol
236.34 K | 242 ± 0.9 J/K/mol
236.67 K | 248.93 ± 1.2 J/K/mol
236.8 K | 248.39 ± 1.2 J/K/mol
237.18 K | 249.45 ± 1.2 J/K/mol
237.49 K | 248.39 ± 1.2 J/K/mol
237.8 K | 249.96 ± 1.2 J/K/mol
238.17 K | 249.66 ± 1.2 J/K/mol
238.48 K | 250.93 ± 1.2 J/K/mol
238.49 K | 242.57 ± 0.91 J/K/mol
238.86 K | 250.68 ± 1.2 J/K/mol
238.93 K | 250.66 ± 1.2 J/K/mol
239.22 K | 244.58 ± 0.91 J/K/mol
239.28 K | 253.63 ± 1.2 J/K/mol
239.54 K | 251.41 ± 1.2 J/K/mol
239.78 K | 251.78 ± 1.2 J/K/mol
240 K | 244.6 ± 0.9 J/K/mol
240.05 K | 252.46 ± 1.2 J/K/mol
240.22 K | 252.08 ± 1.2 J/K/mol
240.64 K | 245.25 ± 0.91 J/K/mol
240.9 K | 252.78 ± 1.2 J/K/mol
241.06 K | 253.96 ± 1.2 J/K/mol
241.18 K | 254.16 ± 1.2 J/K/mol
241.62 K | 254.68 ± 1.2 J/K/mol
242.1 K | 246.15 ± 0.92 J/K/mol
242.31 K | 255.3 ± 1.2 J/K/mol and 255.28 ± 1.2 J/K/mol
242.34 K | 255.3 ± 1.2 J/K/mol
242.5 K | 257.5 ± 1.2 J/K/mol
242.81 K | 246.88 ± 0.92 J/K/mol
243 K | 255.25 ± 1.2 J/K/mol
243.44 K | 256.35 ± 1.2 J/K/mol
243.63 K | 256.1 ± 1.2 J/K/mol
243.67 K | 255.75 ± 1.2 J/K/mol
244.35 K | 256.2 ± 1.2 J/K/mol
244.56 K | 257.83 ± 1.2 J/K/mol
244.9 K | 258.25 ± 1.2 J/K/mol
244.96 K | 248.55 ± 0.93 J/K/mol
244.99 K | 248.48 ± 0.92 J/K/mol
245.02 K | 258.05 ± 1.2 J/K/mol
245.68 K | 259.42 ± 1.2 J/K/mol
245.7 K | 261.47 ± 1.2 J/K/mol and 258.65 ± 1.2 J/K/mol
246.21 K | 260.25 ± 1.2 J/K/mol
246.37 K | 259.35 ± 1.2 J/K/mol
246.81 K | 261 ± 1.2 J/K/mol
247.04 K | 259.87 ± 1.2 J/K/mol
247.17 K | 250.06 ± 0.92 J/K/mol
247.49 K | 261.87 ± 1.2 J/K/mol
247.71 K | 260.55 ± 1.2 J/K/mol
247.81 K | 250.77 ± 0.93 J/K/mol
247.93 K | 262.47 ± 1.2 J/K/mol
248.38 K | 262.79 ± 1.2 J/K/mol
248.76 K | 263.79 ± 1.3 J/K/mol
248.87 K | 265.57 ± 1.3 J/K/mol
249.05 K | 263.94 ± 1.3 J/K/mol and 263.89 ± 1.3 J/K/mol
249.35 K | 251.83 ± 0.92 J/K/mol
249.73 K | 264.77 ± 1.3 J/K/mol
250 K | 252.3 ± 0.9 J/K/mol
250.03 K | 265.72 ± 1.3 J/K/mol
250.16 K | 265.92 ± 1.3 J/K/mol
250.4 K | 265.12 ± 1.3 J/K/mol
250.65 K | 253.29 ± 0.94 J/K/mol
250.81 K | 264.67 ± 1.3 J/K/mol
251.06 K | 267.06 ± 1.3 J/K/mol
251.11 K | 266.37 ± 1.3 J/K/mol
251.28 K | 267.34 ± 1.2 J/K/mol
251.4 K | 267.19 ± 1.2 J/K/mol
251.54 K | 253.61 ± 0.95 J/K/mol
251.7 K | 267.09 ± 1.2 J/K/mol
251.73 K | 268.24 ± 1.3 J/K/mol
252 K | 268.41 ± 1.3 J/K/mol
252.02 K | 268.79 ± 1.3 J/K/mol
252.3 K | 268.34 ± 1.3 J/K/mol
252.43 K | 268.74 ± 1.3 J/K/mol
252.44 K | 269.16 ± 1.3 J/K/mol
252.6 K | 268.74 ± 1.3 J/K/mol
252.91 K | 269.29 ± 1.3 J/K/mol
253.1 K | 269.76 ± 1.3 J/K/mol
253.21 K | 269.44 ± 1.3 J/K/mol
253.49 K | 254.99 ± 0.95 J/K/mol
253.51 K | 272.53 ± 1.3 J/K/mol
253.55 K | 268.86 ± 1.3 J/K/mol
253.73 K | 255.6 ± 0.95 J/K/mol
253.77 K | 270.41 ± 1.3 J/K/mol
253.82 K | 269.46 ± 1.3 J/K/mol
254.13 K | 270.51 ± 1.3 J/K/mol
254.44 K | 270.78 ± 1.3 J/K/mol
254.48 K | 271.06 ± 1.3 J/K/mol
254.67 K | 267.86 ± 1.3 J/K/mol
254.79 K | 270.11 ± 1.3 J/K/mol
255.09 K | 270.86 ± 1.3 J/K/mol
255.11 K | 269.99 ± 1.3 J/K/mol
255.15 K | 266.89 ± 1.2 J/K/mol
255.4 K | 268.06 ± 1.3 J/K/mol
255.71 K | 269.24 ± 1.3 J/K/mol
255.78 K | 268.39 ± 1.3 J/K/mol
255.79 K | 265.69 ± 1.2 J/K/mol
255.93 K | 257.4 ± 0.95 J/K/mol
256.02 K | 270.78 ± 1.3 J/K/mol
256.31 K | 256.81 ± 0.95 J/K/mol
256.34 K | 267.49 ± 1.2 J/K/mol
256.46 K | 267.76 ± 1.2 J/K/mol
256.65 K | 267.31 ± 1.2 J/K/mol
256.92 K | 265.79 ± 1.2 J/K/mol
256.96 K | 267.59 ± 1.2 J/K/mol
257.13 K | 266.91 ± 1.2 J/K/mol
257.27 K | 266.51 ± 1.2 J/K/mol
257.59 K | 266.84 ± 1.2 J/K/mol
257.81 K | 266.84 ± 1.2 J/K/mol
257.9 K | 267.19 ± 1.2 J/K/mol
258.04 K | 266.69 ± 1.2 J/K/mol
258.2 K | 258.77 ± 0.95 J/K/mol
258.23 K | 266.29 ± 1.2 J/K/mol
258.28 K | 269.36 ± 1.3 J/K/mol
258.49 K | 266.59 ± 1.2 J/K/mol
258.54 K | 266.91 ± 1.2 J/K/mol
258.86 K | 266.27 ± 1.2 J/K/mol
259.1 K | 259.75 ± 0.96 J/K/mol
259.16 K | 267.91 ± 1.3 J/K/mol and 267.81 ± 1.2 J/K/mol
259.17 K | 266.56 ± 1.2 J/K/mol
259.54 K | 267.76 ± 1.2 J/K/mol
259.84 K | 267.96 ± 1.3 J/K/mol
259.85 K | 268.01 ± 1.3 J/K/mol
260 K | 260.1 ± 1 J/K/mol
260.17 K | 268.06 ± 1.3 J/K/mol
260.28 K | 269.14 ± 1.3 J/K/mol
260.42 K | 260.6 ± 0.97 J/K/mol
260.48 K | 269.74 ± 1.3 J/K/mol
260.5 K | 268.36 ± 1.3 J/K/mol
260.81 K | 268.66 ± 1.3 J/K/mol
261.13 K | 268.81 ± 1.3 J/K/mol
261.17 K | 270.24 ± 1.3 J/K/mol
261.39 K | 272.21 ± 1.3 J/K/mol
261.41 K | 270.41 ± 1.3 J/K/mol
261.45 K | 269.31 ± 1.3 J/K/mol
261.76 K | 270.09 ± 1.3 J/K/mol
261.85 K | 271.36 ± 1.3 J/K/mol
261.91 K | 260.82 ± 0.96 J/K/mol
262.08 K | 270.58 ± 1.3 J/K/mol
262.39 K | 270.73 ± 1.3 J/K/mol
262.53 K | 272.18 ± 1.3 J/K/mol and 271.23 ± 1.3 J/K/mol
262.65 K | 262.42 ± 0.97 J/K/mol
262.71 K | 270.93 ± 1.3 J/K/mol
263.03 K | 271.38 ± 1.3 J/K/mol
263.24 K | 272.33 ± 1.3 J/K/mol
263.34 K | 272.38 ± 1.3 J/K/mol
263.65 K | 274.08 ± 1.3 J/K/mol
263.66 K | 273.13 ± 1.3 J/K/mol

Reference: the NIST ThermoML archive (doi:10.1016/j.jct.2017.03.026)
